Experimental findings from ChEMBL document CHEMBL3272020, “Synthesis, antimalarial activity, and phototoxicity of some benzo(h)quinoline-4-methanols” (J Med Chem, 1976) are described below.

The structures appear in SMILES notation. Activity calls are given as the source filed them. The calls are words filed in the database; no cut-off is given here.

Data set [1] deals with Plasmodium berghei. In words: Antimalarial activity against Plasmodium berghei infected in mouse assessed as disease cure by measuring host survival for 60 days at 160 mg/kg, sc. It is filed as functional, organism-based. Details: dose 160 mg/kg.
For data set [2], the system named is Plasmodium berghei. In words: Antimalarial activity against Plasmodium berghei infected in mouse assessed as disease cure by measuring host survival for 60 days at 320 mg/kg, sc. In kind it is functional, organism-based. Also on record: dose 320 mg/kg.
In data set [3] the test system is Mus musculus. In words: Toxicity in mouse infected with Plasmodium berghei assessed as animal death at 320 mg/kg, sc. Conditions: in vivo. In kind it is organism-based. Also on record: dose 320 mg/kg, route subcutaneous.
The test system of data set [4] is Mus musculus. In words: Phototoxicity in ip dosed mouse. In kind it is organism-based. The following applies: in vivo.
Data set [5] relates to Plasmodium berghei. In words: Antimalarial activity against Plasmodium berghei infected in mouse assessed as change in mean survival time at 160 mg/kg, sc. It is filed as functional. The following applies: route subcutaneous.
Data set [6] relates to Plasmodium berghei. In words: Antimalarial activity against Plasmodium berghei infected in mouse assessed as change in mean survival time at 320 mg/kg, sc. It is filed as functional. Conditions: route subcutaneous.
The test system of data set [7] is Plasmodium berghei. In words: Antimalarial activity against Plasmodium berghei infected in mouse assessed as change in mean survival time at 640 mg/kg, sc. Conditions: route subcutaneous. It is filed as functional.
For data set [8], the system named is Mus musculus. In words: Toxicity in mouse infected with Plasmodium berghei assessed as animal death at 640 mg/kg, sc. Also on record: dose 640 mg/kg, route subcutaneous. It is filed as organism-based. Conditions: in vivo.
The test system of data set [9] is Plasmodium berghei. In words: Antimalarial activity against Plasmodium berghei infected in mouse assessed as disease cure by measuring host survival for 60 days at 640 mg/kg, sc. In kind it is functional, organism-based. Also on record: dose 640 mg/kg.

Regarding `CCCCN(CCCC)CC(O)c1cc(-c2cc(OC)c(OC)c(OC)c2)nc2c1cc(Cl)c1ccccc12.Cl` (stereo not given), the outcome with Plasmodium berghei [1] and with Plasmodium berghei [2] was Active. Besides, the Activity result in the data set on Mus musculus [3] is recorded as “Non-toxic”. Moreover, in the data set with Mus musculus [4], the MED was determined as 80 mg/kg.
For the compound `CCCCN(CCCC)CC(O)c1c(C)cnc2c1ccc1ccccc12.Cl` (stereo not given), the MST in the data set on Plasmodium berghei [5] amounted to 0.9 days; in the data set with Plasmodium berghei [6] it was 2.9 days; in the data set on Plasmodium berghei [7], 5.3 days. In addition, the Activity result in the data set on Mus musculus [8] is recorded as “Non-toxic”. Moreover, the MED result in the data set with Mus musculus [4] is listed as “Not Active”.
Take `CCCCN(CCCC)CC(O)c1cc(C(C)(C)C)nc2c1cc(Cl)c1ccccc12.O=C(O)C(=O)O` (stereo not given): the MST with Plasmodium berghei [5] amounted to 2.2 days. Besides, the result in the data set with Plasmodium berghei [2] and with Plasmodium berghei [9] was Active. Further, in the data set on Mus musculus [8], the Activity entry is “Non-toxic”. Besides, the MED with Mus musculus [4] turned out to be 100 mg/kg.
For `CCCCN(CCCC)CC(O)c1cc(C(C)(C)C)nc2c1ccc1ccccc12.O=C(O)C(=O)O` (stereo not given), the MST was 1.2 days with Plasmodium berghei [6] and 10.2 days with Plasmodium berghei [7]. For the same compound, the Activity result with Mus musculus [8] was “Toxic”. The MED with Mus musculus [4] is 100 mg/kg.
As to `CCCCN(CCCC)CC(O)c1cc(-c2ccc(C)cc2C)nc2c1cc(Cl)c1ccccc12.Cl` (stereo not given), the MST in the data set with Plasmodium berghei [5] stood at 9 days. The outcome in the data set with Plasmodium berghei [2] and in the data set on Plasmodium berghei [9] was Active. Also, in the data set on Mus musculus [8], the Activity result was “Non-toxic”.
On to `CCCCN(CCCC)CC(O)c1cc(C(C)(C)C)nc2c1cc(C)c1ccccc12.O=C(O)C(=O)O` (stereo not given), for which the MST in the data set on Plasmodium berghei [5] is 2.7 days; in the data set with Plasmodium berghei [6], 3.5 days; in the data set with Plasmodium berghei [7] it was 5.9 days. In the data set on Mus musculus [8], the Activity result is given as “Non-toxic”. In the data set on Mus musculus [4], the MED amounted to 300 mg/kg.
Regarding `CCCCN(CCCC)CC(O)c1c(C)cnc2c1ccc1cccc(Cl)c12.Cl` (stereo not given), the MST in the data set on Plasmodium berghei [5] was 1.2 days; in the data set with Plasmodium berghei [6] it was 6.2 days; with Plasmodium berghei [7], 8.2 days. In addition, the Activity entry with Mus musculus [8] was “Non-toxic”. The compound also had an MED with Mus musculus [4] of 200 mg/kg.
Turning to `CCCCN(CCCC)CC(O)c1c(C)cnc2c1cc(Cl)c1ccccc12.Cl` (stereo not given), the MST with Plasmodium berghei [5] was determined as 6.9 days; with Plasmodium berghei [6] it was 12.9 days. For the same compound, in the data set with Plasmodium berghei [9], the result was Active. The Activity entry in the data set on Mus musculus [8] is on record as “Non-toxic”. The same compound showed an MED in the data set on Mus musculus [4] of 400 mg/kg.
With `C=C[C@H]1CN2CC[C@H]1C[C@H]2[C@H](O)c1cc(-c2ccccc2)nc2ccc(OC)cc12`, the MST with Plasmodium berghei [5] was determined as 5.8 days. Further, in the data set on Plasmodium berghei [9], the result was Active. Besides, the Activity result in the data set on Mus musculus [8] is given as “Non-toxic”. The compound further returned an MED in the data set with Mus musculus [4] of 10 mg/kg.
With `CCCCN(CCCC)CC(O)c1cc(-c2ccc(C)cc2C)nc2c1ccc1ccccc12.Cl` (stereo not given), the MST in the data set with Plasmodium berghei [5] was determined as 4.2 days; in the data set with Plasmodium berghei [6] it was 4.6 days; in the data set on Plasmodium berghei [7], 5.6 days. In addition, in the data set on Mus musculus [8], the Activity result was “Non-toxic”. The MED with Mus musculus [4] stood at 300 mg/kg.
Regarding `C=C[C@H]1CN2CC[C@H]1C[C@H]2[C@H](O)c1ccnc2ccc(OC)cc12` [QUININE], the values for the MST in the data set with Plasmodium berghei [5] and in the data set with Plasmodium berghei [7] were 0.6 days and 4.8 days, respectively. Besides, the Activity entry in the data set with Mus musculus [8] is “Non-toxic”. Moreover, the MED entry in the data set with Mus musculus [4] is on record as “Not Active”.
